Where a SMILES comes first, the peptide text is derived from it. [ ]: non-standard residue; d: D form. Dmt = Cc1cc(O)cc(C)c1C[C@H](N)C(=O)O
Key:
Caco-2 = assay: Cellular uptake of [3H][Dmt1]DALDA; assay type: in vitro ADME, human; conditions: estimated
Method: The cellular uptake of [^3H][Dmt^1]DALDA was studied using a human intestinal epithelial cell line (Caco-2), and confirmed with SH-SY5Y (human neuroblastoma cell), HEK293 (human embryonic kidney cell) and CRFK cells (kidney epithelial cell). Monolayers of cells were grown on 12-well plates (5×10^5 cells/well) coated with collagen for 3 days. On day 4, cells were washed twice with pre-warmed HBSS, and then incubated with 0.2 ml of HBSS containing either 250 nM [^3H][Dmt^1]DALDA at 37° C. […] 4° C. for various times up to 1 h.
In a separate experiment, cells were incubated with a range of [Dmt^1]DALDA concentrations (1 μM-3 mM) for 1 h at 37° C. At the end of the incubation period, cells were washed 4 times with HBSS, and 0.2 ml of 0.1N NaOH with 1% SDS was added to each well. The cell contents were then transferred to scintillation vials and radioactivity counted. To distinguish between internalized radioactivity from surface-associated radioactivity, an acid-wash step was included. Prior to cell lysis, cells were incubated with 0.2 ml of 0.2 M acetic acid/0.05 M NaCl for 5 min on ice.

[1] = Scavenging of H2O2, luminol-induced chemiluminescence; assay type: biochemical; conditions: H2O2 4.4 nmol, 20 min, 37° C.
Method: Effect of SS-02 and SS-05 (Dmt-D-Arg-Phe Orn-NH2) on H2O2 as measured by luminol-induced chemiluminescence, 25 μM luminol and 0.7 IU horseradish peroxidase were added to the solution of H2O2 (4.4 nmol) and peptide, and chemiluminescence was monitored with a Chronolog Model 560 aggregometer (Havertown, Pa.) for 20 min at 37° C.

Caco-2 cells = assay: Mitochondrial potential (TMRM) after tBHP; assay type: cell-based, human; conditions: tBHP 1 mM, SS-02 0.1 μM, 4 h
Method: Caco-2 cells were treated with tBHP (1 mM) in the absence or presence of SS-02 (0.1 μM) for 4 h, and then incubated with TMRM and examined under LSCM. In control cells, the mitochondria are clearly visualized as fine streaks throughout the cytoplasm.

[2] = system: isolated guinea pig hearts; assay: Isolated hearts, 18 h cold ischemia followed by warm reperfusion; conditions: 1 nM SS-31 in cardioplegic solution, 18 h at 4° C.
Method: Isolated guinea pig hearts were perfused in a retrograde manner in a Langendorff apparatus with a cardioplegic solution (St. Thomas solution) without or with SS-31 (1 nM) for 3 min. and then clamped and stored at 4° C. for 18 h. Subsequently, the hearts were remounted in the Langendorff apparatus and reperfused with Krebs-Henseleit solution at 34° C. for 90 min. Hearts were then rapidly fixed and paraffin-embedded.
(B) Immunohistochemical analysis of HNE-modified proteins in paraffin sections from guinea pig hearts stored without (a) or with (b) SS-31 (1 nM). (c) Background staining without primary antibody.
Apoptosis was assessed by the TUNEL stain (green) and nuclei are visualized by DAPI (blue).

N2A cells [3] = assay: tBHP-induced LDH release; assay type: cell-based, murine; conditions: 100 μM tBHP
Method: FIG. 18A-18B. SS-31 reduced tBHP-induced LDH release in SH-SY5Y (A) and N2A (B) cells. Cells were treated with 100 μM tBHP alone, or with SS-31, for 24 h. *P<0.05, **P<0.01, ***P<0.001, compared to tBHP alone.
The loss of cell viability induced by 100 μM tBHP was accompanied by a significant increase in LDH release in SH-SY5Y (FIG. 18A) and N2A cell (FIG. 18B).

N2A cells [4] = assay: Phosphatidylserine translocation, Annexin V and propidium iodide staining after tBHP; assay type: cell-based, murine; conditions: 50 μM tBHP, 1 nM SS-31, 6 h
Method: FIG. 19A-19C. […] N2A cells were incubated with 50 μM tBHP for 6 h and stained with Annexin V and propidium iodide (PI). […] Combined staining with Annexin V and PI (red) indicate late apoptotic cells.
The translocation of phosphatidylserine from the inner leaflet of the plasma membrane to the outer leaflet is observed early in the initiation of apoptosis. This can be observed with Annexin V, a phospholipid binding protein with high affinity for phosphatidylserine.

N2A cells [5] = assay: Mitochondrial function, MTT assay, after tBHP; assay type: cell-based, murine
Method: FIG. 23A-23B. SS-31 protected against tBHP-induced […]. (A) SS-31 protected mitochondrial viability in N2A cells treated with tBHP for 24 h. Mitochondrial viability was evaluated using the MTT assay (*P<0.01 compared to untreated cells, *P<0.05, P<0.01 compared to tBHP alone). (B) SS-31 protected mitochondrial viability in SH-SY5Y cells treated with tBHP for […] (*P<0.01 compared to untreated cells; **P<0.01 compared to tBHP alone).
Only viable mitochondria containing NADPH dehydrogenase activity are capable of cleaving MTT to the formazan. A 50 μM tBHP induced 50% loss of mitochondrial function in N2A cells (FIG. 23A, […]) and 30% loss of mitochondrial function in SH-SY5Y cells (FIG. 23B, P<0.01). […] Treatment of N2A cells with SS-31 alone had no effect on mitochondrial function.

[6] = system: C57BL/6 mice subjected to 30 min MCAO; assay: Redox status (cysteine, ascorbate, GSH) after transient MCAO; assay type: in vivo; conditions: 2 mg/kg i.p. upon reperfusion, 6 h
Method: FIG. 31A-31C. Effect of SS-31 peptide on ischemia-induced changes in cysteine (A) ascorbate (B), and GSH (C) levels, C57BL/6 mice were subjected to 30 min MCAO and treated with vehicle, SS-31 (2 mg/kg body weight) or SS-20 (2 mg/kg body eight) peptide immediately after reperfusion. Mice were sacrificed at 6 h postischemia. Values are expressed as percent increase (cysteine) or percent depletion (ascorbate and GSH) in ipsilateral side versus contralateral side. Error bars indicate SEM (n=4-6 animals per group).
To test the efficacy of SS-3 1 on redox status, cysteine, ascorbate and GSH levels were determined 6 h after 30 min transient middle cerebral artery occlusion (MCAO) in mice treated intraperitoneally (i.p.) with saline (vehicle), SS-31 (2 mg/kg) or SS-20 (2 mg/kg) upon reperfusion. Values in FIG. 31 are expressed as percent increase (cysteine) and percent depletion (ascorbate and GSH) in the ipsilateral side compared to the contralateral side. Absolute values were originally expressed as nmoles/mg protein as shown in FIG. 30 and converted to percent difference. The percent ipsilateral cysteine increase was similar among vehicle-, SS-31-, and SS-20-treated groups (FIG. 31A).

| Compound | intracellular concentration relative to extracellular concentration (Caco-2) | luminol response (H2O2 scavenging) [1] | mitochondrial depolarization caused by tBHP (Caco-2 cells) | apoptosis in endothelial cells and myocytes (TUNEL) [2] | coronary flow [2] | lipid peroxidation (HNE-modified proteins) [2] | LDH release (N2A cells [3]; 0.1 and 1 nM of SS-31) | LDH release / tBHP-induced cytotoxicity (N2A cells [3]; 24 h) | Annexin V-positive cells (N2A cells [4]) | propidium iodide staining (N2A cells [4]) | tBHP-induced mitochondrial toxicity/dysfunction (MTT) (N2A cells [5]; tBHP 50-100 μM, 24 h) | mitochondrial function, peptide alone (N2A cells [5]; without tBHP) | ischemia-induced GSH depletion in the cortex [6] | percent ipsilateral cysteine increase [6] | percent ipsilateral depletion of ascorbate [6] |
| --- | --- | --- | --- | --- | --- | --- | --- | --- | --- | --- | --- | --- | --- | --- | --- |
| 2′,6′-Dmt-Arg-Phe-Lys-NH2 [SS-02] | approximately 50 times | dose-dependently inhibited | protected against mitochondrial depolarization |  |  |  |  |  |  |  |  |  |  |  |  |
| Cc1cc(O)cc(C)c1C[C@H](NC(=O)[C@H](N)CCCNC(=N)N)C(=O)N[C@@H](CCCCN)C(=O)N[C@@H](Cc1ccccc1)C(N)=O [SS-31, D-Arg-2′6′-Dmt-Lys-Phe-NH2] (H-[dR][Dmt]KF-NH2; N-terminus assumed) |  |  |  | prevents apoptosis | significantly improved | Reduces Lipid Peroxidation | reduced significantly | dose-dependent decrease | reduction | no propidium iodide staining | dose-dependently reduced | no effect | significantly attenuated | similar | marginally but not significantly affected |

Reference: patent publication US9950026B2, “Methods for reducing oxidative damage” (Cornell Research Foundation, Inc., priority 2004, dated 2018)
